Drawing on patent US20090170867A1, “TRPV1 ANTAGONISTS INCLUDING SULFONAMIDE SUBSTITUENT AND USES THEREOF” (Shionogi & Co., Ltd., priority 2007, published 2009), this text covers IC50 for 29 molecules.

A word on the IC50: it is the midpoint of a concentration-inhibition curve.

Assay [1] concerns the target T1, human TRPV1 (Homo sapiens, UniProt Q8NER1).
T1 construct: using primers designed surrounding the complete hTRPV1 open reading frame; expressed in transfected cells; host or cells: CHO-K1 cells stably transfected with pcDNA3.1(-)-hVR1 plasmid
As to the kind of experiment: pH-based assay, Protocol 2 (TRPV1/CHO cells, Fura-2 AM, FDSS-3000, pH 5.0-5.1). The format is cell-based. Conditions: H2SO4 agonist, mean ± SEM, number of trials in parentheses, read-out: TRPV1 IC50 Potency, Human pH CHO (hpH-CHO). From the text:
For Protocol 2, a Chinese Hamster Ovary cell line (CHO) that has been engineered to constitutively express human recombinant TRPV1 was used (TRPV1/CHO cells). The TRPV1/CHO cell line was generated as described below.
The resulting PCR products were purified from agarose gels using Gel Band Purification Kit (GE Healthcare Bioscience) and were subcloned into pCR-Blunt vector (Invitrogen). The cloned cDNA was fully sequenced using a fluorescent dye-terminator reagent (BigDye Terminator ver3.1 Cycle Sequencing Kit, Applied Biosystems) and ABI Prism 3100 genetic analyzer (Applied Biosystems). The pCR-Blunt vector containing the hTRPV1 cDNA was subjected to restriction digestion with EcoRI. The restriction fragment was subcloned into expression vector pcDNA3.1 (−) (Invitrogen) and named pcDNA3.1 (−)-hVR1 plasmid. The sequence of the cDNA encoding TRPV1 is available at GenBank accession number AJ277028.
CHO-K1 cells were maintained in growth medium consisting of α-MEM, 10% FBS (Hyclone), and 100 IU/mL of penicillin-100 μg/mL of streptomycin mixed solution (Nacalai Tesque, Japan) at 37° C. in an environment of humidified 95% air and 5% CO2. The cells were transfected with the pcDNA3.1 (−)-hVR1 plasmid using FuGENE6 (Roche) according to the manufacturer's protocol. 24 hr after transfection, neomycin-resistant cells were selected using 1 mg/mL G418 (Nacalai Tesque). After 2 weeks, individual colonies were picked, expanded, and screened for the expression of hTRPV1 in the capsaicin-induced Ca^2+ influx assay (see below) with a FLIPR (Molecular Devices). A clone with the largest Ca^2+ response to capsaicin was selected and re-cloned by the same procedure. The cells expressing hTRPV1 were cultured in the growth medium supplemented with 1 mg/mL G418.
TRPV1/CHO cells were seeded in the 96-well clear-bottom black-wall plate (Nunc) at densities of 1-2×10^4 cells/well and grown in 100 μL of culture medium (alpha-MEM supplemented with 10% FBS, 20 mM HEPES, 1 mg/mL geneticin and 1% antibiotic-antimycotic mixed stock solution) for 1-2 days before the experiment.
Different agonist solutions with sulfuric acid concentrations of from 15 mM to 18 mM (see FIG. 1) were prepared by diluting 1M sulfuric acid with measuring buffer. The different sulfuric acid concentrations in the agonist solutions were selected such that a 1:4 dilution would result in a final sulfuric acid concentration of between 3.0 mM to 3.6 mM, respectively, as indicated in FIG. 1.
The cells were stimulated using 3.0 mM (well number B1-6), 3.1 mM (C1-6), 3.2 mM (D1-6), 3.3 mM (E1-6), 3.4 mM (F1-6), 3.5 mM (G1-6), or 3.6 mM (H1-6) H2SO4 or pH 7.2 measuring buffer without H2SO4 (A1-6) (FIG. 2).
(1) Culture medium was removed using an 8-channel-pipette (Rainin, USA) from the 96-well plate and the wells were refilled with 100 μL of loading buffer (20 mM HEPES, 115 mM NaCl, 5.4 mM KCl, 0.8 mM MgCl2, 1.8 mM CaCl2, 13.8 mM D-glucose, 2.5 mM probenecid, pH 7.4) containing 5 μM Fura-2 AM (Dojin, Japan).
(2) The 96-well plate was incubated at 37° C. for 45 min.
(3) The loading buffer was removed from each well. The cells were subsequently washed twice with 150 μL of measuring buffer (20 mM HEPES, 115 mM NaCl, 5.4 mM KCl, 0.8 mM MgCl2, 5.0 mM CaCl2, 13.8 mM D-glucose, 0.1% BSA, pH 7.4) (no probenecid). The wells were then refilled with 80 μL of measuring buffer.
(4) After an incubation at 4° C. for 15 min, the 96-well plate was transferred to FDSS-3000 (Hamamatsu Photonics, Japan).
(5) The Fura-2 fluorescent intensity was monitored at a wavelength of 340 nm and at 380 nm, respectively, at a rate of 0.5 Hz for a total of 240 seconds.

Assay [2] addresses T1, human TRPV1. As to the kind of experiment: Capsaicin-based assay, Protocol 2 (TRPV1/CHO cells, Fluo-4, FLIPR). The format is cell-based. Conditions: capsaicin 100 nM final, mean ± SEM, number of trials in parentheses, read-out: TRPV1 IC50 Potency, Human Capsaicin CHO (hCAP-CHO). An excerpt:
The TRPV1/CHO cell line was generated as described below. […] The resulting PCR products were purified from agarose gels using Gel Band Purification Kit (GE Healthcare Bioscience) and were subcloned into pCR-Blunt vector (Invitrogen). The cloned cDNA was fully sequenced using a fluorescent dye-terminator reagent (BigDye Terminator ver3.1 Cycle Sequencing Kit, Applied Biosystems) and ABI Prism 3100 genetic analyzer (Applied Biosystems). The pCR-Blunt vector containing the hTRPV1 cDNA was subjected to restriction digestion with EcoRI. The restriction fragment was subcloned into expression vector pcDNA3.1 (-) (Invitrogen) and named pcDNA3.1 (-)-hVR1 plasmid. The sequence of the cDNA encoding TRPV1 is available at GenBank accession number AJ277028. […] The cells were transfected with the pcDNA3.1 (-)-hVR1 plasmid using FuGENE6 (Roche) according to the manufacturer's protocol. 24 hr after transfection, neomycin-resistant cells were selected using 1 mg/mL G418 (Nacalai Tesque). […] The cells expressing hTRPV1 were cultured in the growth medium supplemented with 1 mg/mL G418. […] Subsequently, the cells were loaded by incubation in 0.1 mL of wash buffer containing Fluo-4 at 3 μM final concentration. After 1 hour, the cells were washed twice with 0.2 mL wash buffer and resuspended in 0.1 mL wash buffer. The plates were then transferred to a Fluorescence Imaging Plate Reader (Molecular Devices). Fluorescence intensity was monitored for 15 seconds to establish a baseline. […] The final concentration of the compound was adjusted to range from 100 μM to 1.5625 μM. […] Data were collected over the entire time course and analyzed using Excel and the curve-fitting formula GraphPad Prism.

T1 sequence (Q8NER1 whole entry): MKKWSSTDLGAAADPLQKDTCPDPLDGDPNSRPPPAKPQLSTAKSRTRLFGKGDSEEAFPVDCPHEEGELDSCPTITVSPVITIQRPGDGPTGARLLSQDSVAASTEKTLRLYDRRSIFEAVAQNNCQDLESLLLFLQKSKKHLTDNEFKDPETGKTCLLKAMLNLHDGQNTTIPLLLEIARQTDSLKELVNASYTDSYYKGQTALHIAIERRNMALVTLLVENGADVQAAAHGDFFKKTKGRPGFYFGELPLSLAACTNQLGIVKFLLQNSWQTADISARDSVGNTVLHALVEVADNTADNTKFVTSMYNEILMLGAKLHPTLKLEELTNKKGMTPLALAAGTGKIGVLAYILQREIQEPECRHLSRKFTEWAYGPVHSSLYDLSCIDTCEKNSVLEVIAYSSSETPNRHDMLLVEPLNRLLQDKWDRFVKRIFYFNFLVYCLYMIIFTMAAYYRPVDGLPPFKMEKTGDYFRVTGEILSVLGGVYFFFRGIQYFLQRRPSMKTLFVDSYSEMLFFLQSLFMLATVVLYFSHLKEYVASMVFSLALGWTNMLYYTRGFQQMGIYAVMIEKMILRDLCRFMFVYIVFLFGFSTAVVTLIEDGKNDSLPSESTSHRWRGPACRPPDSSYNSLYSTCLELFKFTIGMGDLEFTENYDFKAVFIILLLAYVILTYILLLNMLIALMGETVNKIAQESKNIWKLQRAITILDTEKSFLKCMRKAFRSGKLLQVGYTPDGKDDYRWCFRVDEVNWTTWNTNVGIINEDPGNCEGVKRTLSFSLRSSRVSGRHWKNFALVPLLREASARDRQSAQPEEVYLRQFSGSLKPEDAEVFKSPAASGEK

With `O=C(Nc1ccc(C(F)(F)F)cn1)N1CC=C(c2ncccc2Cl)CC1` [Compound 201], the IC50 at human TRPV1 [1] is 0.185 µM; on human TRPV1 [2], 0.131 µM.
On to `O=C(Nc1ccc(C(F)(F)F)c(F)c1)N1CC=C(c2ncccc2F)CC1` [Compound 202], for which the 50% inhibitory concentration (IC50) on human TRPV1 [1] turned out to be 0.59 µM; at human TRPV1 [2], 0.182 µM.
The corresponding values for `O=C(Nc1ccc(C(F)(F)F)cc1)N1CCC(F)(c2ncccc2Cl)CC1` [Compound 203] are 0.0512 µM and 0.0902 µM.
The corresponding values for `O=C(Nc1ccc(C(F)(F)F)cn1)N1CCC(F)(c2ncccc2Cl)CC1` [Compound 204] are 0.154 µM and 0.167 µM.
In the case of `O=C(Nc1nc2ccc(F)cc2s1)N1CCC(F)(c2ncccc2Cl)CC1` [Compound 206], the figures for the concentration for half-maximal inhibition (IC50) at human TRPV1 [1] and at human TRPV1 [2] were 1.46 µM and 0.508 µM, respectively.
The corresponding values for `COCc1cnc(C2=CCN(C(=O)Nc3ccc(S(=O)(=O)C(F)(F)F)cc3)CC2)c(Cl)c1` [Compound A3] are 0.31 ± 0.0389 µM and 0.414 ± 0.0996 µM.
`O=C(Nc1ccc(C(F)(F)F)c(F)c1)N1CCC(F)(c2ncc([C@@H](O)CO)cc2F)CC1` [Compound A6]: the IC50 at human TRPV1 [1] amounted to 0.009 ± 0.0008 µM; on human TRPV1 [2], 0.0498 ± 0.0121 µM.
As for `O=C(Nc1ccc(C(F)(F)F)cc1)N1CCC(F)(c2ncc([C@@H](O)CO)cc2Cl)CC1` [Compound B1], the concentration for half-maximal inhibition (IC50) on human TRPV1 [1] was determined as 0.0074 ± 0.0003 µM; on human TRPV1 [2], 0.00781 ± 0.0012 µM.
The corresponding values for `CC(C)c1cc(NC(=O)N2CC=C(c3ncc([C@H](O)CO)cc3Cl)CC2)ccc1OC(F)(F)F` [Compound B2] are 0.0405 µM and 0.0776 ± 0.012 µM.
On the same counts, the results for `CC(C)(O)c1cnc(C2=CCN(C(=O)Nc3nc4ccc(Cl)cc4s3)CC2)c(Cl)c1` [Compound B3] are 0.106 ± 0.0114 µM and 0.537 ± 0.062 µM.
Consider `O=C(Nc1ccc(S(=O)(=O)C(F)(F)F)cc1)N1CCC(F)(c2ncc([C@@H](O)CO)cc2Cl)CC1` [Compound B4], for which the IC50 at human TRPV1 [1] was found to be 0.0058 ± 0.0013 µM; at human TRPV1 [2], 0.0572 ± 0.0116 µM.
On the same counts, the results for `O=C(Nc1ccc(Br)c(C(F)(F)F)c1)N1CCC(F)(c2ncc([C@H](O)CO)cc2Cl)CC1` [Compound B5] are 0.015 ± 0.003 µM and 0.106 ± 0.021 µM.
Turning to `CC(O)c1cnc(C2=CCN(C(=O)Nc3ccc(C(F)(F)F)cn3)CC2)c(Cl)c1` (stereo not shown) [Compound B6], the IC50 at human TRPV1 [1] was 0.362 ± 0.0691 µM; on human TRPV1 [2], 0.922 ± 0.205 µM.
The corresponding values for `O=C(Nc1ccc(S(=O)(=O)C(F)(F)F)cc1)N1CC=C(c2ncc(CO)cc2Cl)CC1` [Compound C2] are 0.0418 ± 0.0038 µM and 0.0987 ± 0.0339 µM.
On the same counts, the results for `O=C(Nc1nc2ccc(Cl)cc2s1)N1CC=C(c2ncc([C@H](O)CO)cc2F)CC1` [Compound C4] are 0.0186 ± 0.0028 µM and 0.0662 ± 0.0075 µM.
The corresponding values for `COc1cc(NC(=O)N2CCC(F)(c3ncc([C@H](O)CO)cc3F)CC2)ccc1C(F)(F)F` [Compound C5] are 0.0399 ± 0.0079 µM and 0.108 ± 0.0384 µM.
As for `CC(C)(C)c1ccc(NC(=O)N2CC=C(c3ncc([C@H](O)CO)cc3F)CC2)cc1` [Compound D1], the half-inhibitory concentration (IC50) worked out at 0.0009 µM on human TRPV1 [1] and 0.0165 ± 0.0041 µM on human TRPV1 [2].
On the same counts, the results for `O=C(Nc1ccc(C(F)(F)F)c(Cl)c1)N1CC=C(c2ncc([C@H](O)CO)cc2Cl)CC1` [Compound D2, (S)-3-Chloro-5-(1,2-dihydroxy-ethyl)-3′,6′-dihydro-2′H-[2,4′]bipyridinyl-1′-carboxylic acid (3-chloro-4-trifluoromethyl-phenyl)amide] are 0.0108 ± 0.0009 µM and 0.0853 ± 0.0207 µM.
Turning to `O=C(Nc1ccc(C(F)(F)F)cn1)N1CCC(F)(c2ncc([C@@H](O)CO)cc2Cl)CC1` [Compound D4], the results for the IC50 at human TRPV1 [1] and on human TRPV1 [2] were 0.0548 µM and 0.0696 ± 0.0069 µM, respectively.
The corresponding values for `CC(C)(O)c1cnc(C2=CCN(C(=O)Nc3ccc(C(F)(F)F)c(F)c3)CC2)c(Cl)c1` [Compound E3] are 0.141 ± 0.0231 µM and 0.671 ± 0.133 µM.
The corresponding values for `O=C(Nc1ccc(Cl)c(C(F)(F)F)c1)N1CCC(F)(c2ncc([C@H](O)CO)cc2F)CC1` [Compound E5] are 0.0338 µM and 0.133 ± 0.0285 µM.
Regarding `COCc1cnc(C2=CCN(C(=O)Nc3ccc(C(F)(F)F)cc3)CC2)c(Cl)c1` [Compound F3], the figures for the IC50 on human TRPV1 [1] and at human TRPV1 [2] were 0.585 µM and 0.916 ± 0.306 µM, respectively.
With `O=C(Nc1ccc(C(F)(F)F)cc1)N1CC=C(c2ncc(C(F)(F)CO)cc2Cl)CC1` [Compound F4, 4-(3-chloro-5-(1,1-difluoro-2-hydroxyethyl)pyridin-2-yl)-N-(4-(trifluoromethyl)phenyl)-5,6-dihydropyridine-1(2H)-carboxamide], the IC50 at human TRPV1 [1] was determined as 0.0325 ± 0.0024 µM; at human TRPV1 [2], 0.0867 ± 0.0189 µM.
The corresponding values for `O=C(Nc1ccc(C(F)(F)F)cn1)N1CCC(F)(c2ncc([C@H](O)CO)cc2Cl)CC1` [Compound G1] are 0.0164 µM and 0.0313 ± 0.0088 µM.
On the same counts, the results for `O=C(Nc1ccc(Cl)c(C(F)(F)F)c1)N1CCC(F)(c2ncc([C@@H](O)CO)cc2F)CC1` [Compound G5] are 0.108 µM and 0.4 ± 0.0106 µM.
The corresponding values for `O=C(Nc1nc2ccc(F)cc2s1)N1CCC(F)(c2ncc([C@@H](O)CO)cc2Cl)CC1` [Compound H4] are 0.097 ± 0.0099 µM and 0.176 ± 0.0284 µM.
As to `CN1CCCc2ccc(NC(=O)N3CCN(c4ncc([C@H](O)CO)cc4Cl)CC3)cc21` [Compound H5], the figures for the IC50 on human TRPV1 [1] and at human TRPV1 [2] were 0.516 ± 0.0992 µM and 0.52 ± 0.0886 µM, respectively.
The corresponding values for `CC(C)(C)c1ccc(NC(=O)N2CC=C(c3ncc([C@H](O)CO)cc3Cl)CC2)cc1` [Compound I1, (S)-3-Chloro-5-(1,2-dihydroxy-ethyl)-3′,6′-dihydro-2′H-[2,4′]bipyridinyl-1′-carboxylic acid (4-tert-butyl-phenyl)amide] are 0.0011 ± 0.0002 µM and 0.0338 ± 0.0091 µM.
On the same counts, the results for `CC(C)Oc1ccc(NC(=O)N2CC=C(c3ncc(CO)cc3Cl)CC2)cc1C(F)(F)F` [Compound I2] are 0.018 ± 0.001 µM and 0.122 ± 0.0071 µM.
